Here are results for 18 compounds from patent US10766884B2 (Pfizer Inc., priority 2018, dated 2020).

The target in one test is CDK6 (Homo sapiens (Human), UniProt Q00534). Description: Phospho-Serine 795 Rb ELISA assay in MV4-11 cells. The following applies: overnight treatment, phospho-Rb S795, read-out: CDK6 pRB S795 ELISA MV4-11 cells IC50. The class given is cell-based. As for the experimental part: (§1) JEKO-1 or MV4-11 cells were seeded at 15,000 or 20,000 cells per well, respectively, in 100 μL growth media and allowed to incubate at 37° C. with 5% CO2 overnight. The following day, compounds were serially diluted from a 10 mM top dose for an 11-point 3-fold dilution curve in DMSO. Compounds were intermediately diluted 1:200 into growth media prior to diluting 1:5 on cells for final concentration 10 μM to 0.1 nM in 0.1% DMSO on cells. JEKO-1 and MV4-11 cells were treated were treated overnight, at 37° C. with 5% CO2. Cells were lysed in 100 μL/well CST lysis buffer on ice and transferred to pre-coated and blocked anti-phospho-Ser795 Rb ELISA plates for overnight incubation at 4° C. Plates were washed to remove residual, unbound cellular proteins and total Rb detection antibody added for 90 minutes at 37° C. Following wash to remove unbound total Rb antibody, the HRP tagged antibody was allowed to bind for 30 minutes at 37° C. Following wash to remove unbound HRP antibody, Glo Substrate Reagent was added and incubated protected from light for 5 to 10 minutes. Plates were read in luminescence mode and IC50 values calculated.
For orientation: An ELISA detects its analyte on a solid surface through an enzyme-linked reagent.

The target in another test is CDK4 (Homo sapiens (Human), UniProt P11802). Description: Phospho-Serine 795 Rb ELISA assay in JEKO-1 cells. It is filed as cell-based. The following applies: overnight treatment, phospho-Rb S795, read-out: CDK4 pRB S795 ELISA JEKO-1 cells IC50. As for the experimental part:
as §1

The next test deals with CDK4/Cyclin D1 (Homo sapiens (Human), UniProt P11802). Description: CDK4/Cyclin D1 mobility shift assay. The class given is biochemical. The conditions noted are these: activated CDK4/Cyclin D1, 3.5 mM ATP, Morrison fit; read-out: CDK4D1 Ki.
A further test deals with CDK6/Cyclin D3 (Homo sapiens (Human), UniProt Q00534). Description: CDK6/Cyclin D3 mobility shift assay. It is filed as biochemical. The following applies: activated CDK6/Cyclin D3, 3.5 mM ATP, Morrison fit; read-out: CDK6_D3 Ki.

Where a name gives a salt, the structure may show the parent alone.

Chain of CDK4/Cyclin D1 (P11802 whole entry): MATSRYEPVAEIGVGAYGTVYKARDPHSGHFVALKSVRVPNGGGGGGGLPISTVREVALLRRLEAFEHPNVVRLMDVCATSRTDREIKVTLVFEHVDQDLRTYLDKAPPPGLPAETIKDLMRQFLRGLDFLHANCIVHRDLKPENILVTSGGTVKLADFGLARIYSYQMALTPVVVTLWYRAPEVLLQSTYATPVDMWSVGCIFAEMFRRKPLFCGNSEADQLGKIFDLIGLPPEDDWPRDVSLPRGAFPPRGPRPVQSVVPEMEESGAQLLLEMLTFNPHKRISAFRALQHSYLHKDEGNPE
Chain of CDK4/Cyclin D1 (P24385 whole entry partner): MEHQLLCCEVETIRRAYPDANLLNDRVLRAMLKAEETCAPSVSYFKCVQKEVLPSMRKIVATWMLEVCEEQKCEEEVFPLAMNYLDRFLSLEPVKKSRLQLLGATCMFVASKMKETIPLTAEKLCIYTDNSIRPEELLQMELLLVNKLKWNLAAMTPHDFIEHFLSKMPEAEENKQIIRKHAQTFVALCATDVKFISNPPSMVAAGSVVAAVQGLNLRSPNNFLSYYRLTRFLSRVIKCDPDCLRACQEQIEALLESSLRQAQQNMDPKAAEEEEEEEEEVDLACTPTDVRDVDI
Chain of CDK6/Cyclin D3 (Q00534 whole entry): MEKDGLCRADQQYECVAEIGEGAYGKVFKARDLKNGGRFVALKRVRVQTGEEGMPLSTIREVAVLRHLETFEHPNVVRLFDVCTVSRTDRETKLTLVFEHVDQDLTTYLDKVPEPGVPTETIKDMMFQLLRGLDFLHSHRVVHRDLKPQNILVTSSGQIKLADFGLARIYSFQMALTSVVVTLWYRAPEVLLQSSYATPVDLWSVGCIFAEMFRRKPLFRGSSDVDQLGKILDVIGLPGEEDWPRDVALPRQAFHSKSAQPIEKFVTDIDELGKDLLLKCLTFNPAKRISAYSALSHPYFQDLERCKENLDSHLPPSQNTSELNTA
Chain of CDK6/Cyclin D3 (P30281 whole entry partner): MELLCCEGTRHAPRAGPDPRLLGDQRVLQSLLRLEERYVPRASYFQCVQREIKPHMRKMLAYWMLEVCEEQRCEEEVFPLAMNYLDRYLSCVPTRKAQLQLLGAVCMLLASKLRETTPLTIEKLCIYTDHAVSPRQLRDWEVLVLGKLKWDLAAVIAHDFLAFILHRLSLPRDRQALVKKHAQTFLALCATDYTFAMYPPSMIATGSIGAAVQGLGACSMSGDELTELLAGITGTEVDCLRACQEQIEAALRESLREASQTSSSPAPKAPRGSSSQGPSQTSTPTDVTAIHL
Chain of CDK6 (Q00534 whole entry): as the sequence (Q00534 whole entry) above
Chain of CDK6 (P30281 whole entry partner): as the sequence (P30281 whole entry partner) above
Chain of CDK4 (P11802 2-303): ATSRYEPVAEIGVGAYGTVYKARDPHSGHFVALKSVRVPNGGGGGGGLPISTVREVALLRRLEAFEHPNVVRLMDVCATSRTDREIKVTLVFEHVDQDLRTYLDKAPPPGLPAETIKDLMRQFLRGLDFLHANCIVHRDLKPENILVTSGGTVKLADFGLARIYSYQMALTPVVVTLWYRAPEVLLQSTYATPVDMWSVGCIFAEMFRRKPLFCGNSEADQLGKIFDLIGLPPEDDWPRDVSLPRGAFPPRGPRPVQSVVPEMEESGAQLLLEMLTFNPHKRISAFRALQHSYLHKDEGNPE
Chain of CDK4 (P24385 whole entry partner): as the sequence (P24385 whole entry partner) above

For orientation: IC50 means the concentration at which inhibition is half-maximal. Broadly, the Ki is the equilibrium dissociation constant of an inhibitor or competing ligand from its target. As to `CC(C)n1c(C(C)(C)N)nc2c(F)cc(-c3nc(N[C@@H]4CCOC[C@H]4O)ncc3Cl)cc21` [Example A41, 3-({4-[2-(2-aminopropan-2-yl)-4-fluoro-1-(propan-2-yl)-1H-benzimidazol-6-yl]-5-chloropyrimidin-2-yl}amino)-1,5-anhydro-2,3-dideoxy-D-threo-pentitol], the IC50 stood at 216 nM on CDK6 and 92.8 nM on CDK4. The inhibitory constant (Ki) came to 3.1 nM at CDK4/Cyclin D1 and 48.8 nM at CDK6/Cyclin D3.

`Cc1cc(-c2nc(N[C@@H]3CCN(S(C)(=O)=O)C[C@H]3O)ncc2F)cc2c1nc(C)n2C(C)C` [Example A79, (3R,4R)-4-({4-[2,4-dimethyl-1-(propan-2-yl)-1H-benzimidazol-6-yl]-5-fluoropyrimidin-2-yl}amino)-1-(methanesulfonyl)piperidin-3-ol]: the half-maximal inhibitory concentration (IC50) on CDK6 is 1140 nM; at CDK4 it was 598 nM. The Ki at CDK4/Cyclin D1 was 1.8 nM; at CDK6/Cyclin D3, 17.6 nM.

As to `CC(C)n1c(C2CNC2)nc2c(F)cc(-c3nc(N[C@@H]4CCOC[C@H]4O)ncc3Cl)cc21` [Example C02, 1,5-anhydro-3-({4-[2-(azetidin-3-yl)-4-fluoro-1-(propan-2-yl)-1H-benzimidazol-6-yl]-5-chloropyrimidin-2-yl}amino)-2,3-dideoxy-D-threo-pentitol], the IC50 at CDK6 worked out at 1350 nM; at CDK4, 584 nM. Moreover, the Ki on CDK4/Cyclin D1 came out at 4.1 nM; on CDK6/Cyclin D3, 89.3 nM.

As for `CC(C)n1c(C2CCO2)nc2c(F)cc(-c3nc(N[C@@H]4CCN(S(C)(=O)=O)C[C@H]4O)ncc3Cl)cc21` (single isomer, unassigned) [Example A31], the values for the IC50 on CDK6 and at CDK4 were 87 nM and 23.5 nM, respectively. The inhibition constant Ki on CDK4/Cyclin D1 was found to be 0.5 nM; at CDK6/Cyclin D3 it was 7.1 nM.

`Cn1nc2ccc(-c3nc(N[C@@H]4CCN(S(C)(=O)=O)C[C@H]4O)ncc3Cl)cc2c1C(C)(C)O` [Example A29]: the 50% inhibitory concentration (IC50) at CDK6 is 95.7 nM; on CDK4 it was 68.6 nM. In addition, the inhibitory constant (Ki) was found to be 0.6 nM on CDK4/Cyclin D1 and 5.1 nM at CDK6/Cyclin D3.

In the case of `CN(C)CCN1CC[C@@H](Nc2ncc(Cl)c(-c3cc(F)c4ncn(C(C)(C)C)c4c3)n2)[C@H](O)C1` [Example F06, (3R,4R)-4-{[4-(1-tert-butyl-4-fluoro-1H-benzimidazol-6-yl)-5-chloropyrimidin-2-yl]amino}-1-[2-(dimethylamino)ethyl]piperidin-3-ol formic acid salt], the IC50 on CDK6 was found to be 134 nM; on CDK4, 161 nM. In addition, the Ki came out at 1.5 nM on CDK4/Cyclin D1 and 27.8 nM at CDK6/Cyclin D3.

Consider `Cc1nc2cc(F)c(-c3nc(N[C@@H]4CCN(S(C)(=O)=O)C[C@H]4O)ncc3Cl)cc2n1C(C)C` [Example A06], for which the IC50 on CDK6 amounted to 192 nM; at CDK4, 87.4 nM. Moreover, the inhibitory constant (Ki) at CDK4/Cyclin D1 came out at 1.4 nM; at CDK6/Cyclin D3, 17.5 nM.

In the case of `C[C@H](O)c1nc2c(F)cc(-c3nc(N[C@@H]4CCOC[C@H]4O)ncc3Cl)cc2n1C(C)(C)C` [Example A61, 1,5-anhydro-3-[(4-{1-tert-butyl-4-fluoro-2-[(1S)-1-hydroxyethyl]-1H-benzimidazol-6-yl}-5-chloropyrimidin-2-yl)amino]-2,3-dideoxy-D-threo-pentitol], the figures for the IC50 on CDK6 and on CDK4 were 33.5 nM and 11.4 nM, respectively. Also, the Ki at CDK4/Cyclin D1 was determined as 0.2 nM; at CDK6/Cyclin D3 it was 2.6 nM.

As for `CC(O)c1nc2c(F)cc(-c3nc(N[C@@H]4CCOC[C@H]4O)ncc3Cl)cc2n1C(C)C(F)F` (single isomer, unassigned) [Example A36], the IC50 was found to be 43.9 nM on CDK6 and 19.6 nM at CDK4. The Ki on CDK4/Cyclin D1 is 0.2 nM; on CDK6/Cyclin D3, 3.7 nM.

Consider `CC(C)n1c([C@H](C)O)nc2cc(F)c(-c3nc(N[C@@H]4CCOC[C@H]4O)ncc3Cl)cc21` [Example A12], for which the IC50 at CDK6 is 108 nM; at CDK4 it was 29.8 nM. Besides, the Ki worked out at 0.6 nM at CDK4/Cyclin D1 and 7.9 nM at CDK6/Cyclin D3.

Consider `Cc1nc2c(F)cc(-c3nc(N[C@@H]4CCN(S(C)(=O)=O)C[C@H]4O)ncc3F)cc2n1C1CNC1` [Example A88, (3R,4R)-4-({4-[1-(azetidin-3-yl)-4-fluoro-2-methyl-1H-benzimidazol-6-yl]-5-fluoropyrimidin-2-yl}amino)-1-(methanesulfonyl)piperidin-3-ol], for which the IC50 at CDK6 was 10000 nM; on CDK4 it was 7320 nM. Also, the figures for the Ki at CDK4/Cyclin D1 and on CDK6/Cyclin D3 were 4.5 nM and 80.4 nM, respectively.

With `COCC(C)n1c(C)nc2c(F)cc(-c3nc(N[C@@H]4CCN(S(C)(=O)=O)C[C@H]4O)ncc3Cl)cc21` (single isomer, unassigned) [Example A74], the 50% inhibitory concentration (IC50) turned out to be 89.7 nM on CDK6 and 26.5 nM at CDK4. Also, the results for the inhibition constant (Ki) at CDK4/Cyclin D1 and on CDK6/Cyclin D3 were 0.2 nM and 6.2 nM, respectively.

Take `Cc1nc2c(F)cc(-c3nc(N[C@@H]4CCN(S(C)(=O)=O)C[C@H]4O)ncc3C#N)cc2n1C(C)C` [Example B01, 4-[4-fluoro-2-methyl-1-(propan-2-yl)-1H-benzimidazol-6-yl]-2-{[(3R,4R)-3-hydroxy-1-(methanesulfonyl)piperidin-4-yl]amino}pyrimidine-5-carbonitrile]: the IC50 at CDK6 came to 129 nM; on CDK4, 65.6 nM. The inhibition constant Ki at CDK4/Cyclin D1 is 0.1 nM; on CDK6/Cyclin D3, 1.5 nM.

Consider `CC1(C)COCc2nc3c(F)cc(-c4nc(N[C@@H]5CCOC[C@H]5O)ncc4F)cc3n21` [Example A19], for which the 50% inhibitory concentration (IC50) is 318 nM at CDK6 and 69.1 nM on CDK4. In addition, the Ki on CDK4/Cyclin D1 worked out at 0.9 nM; at CDK6/Cyclin D3 it was 14.6 nM.

Take `CC(C)n1c(CN2CCC2)nc2c(F)cc(-c3nc(N[C@@H]4CCOC[C@H]4O)ncc3Cl)cc21` [Example H07, 1,5-anhydro-3-[(4-{2-[(azetidin-1-yl)methyl]-4-fluoro-1-(propan-2-yl)-1H-benzimidazol-6-yl}-5-chloropyrimidin-2-yl)amino]-2,3-dideoxy-D-threo-pentitol]: the half-inhibitory concentration (IC50) on CDK6 worked out at 409 nM; on CDK4, 48.3 nM. Besides, the results for the inhibition constant (Ki) at CDK4/Cyclin D1 and at CDK6/Cyclin D3 were 1.4 nM and 43 nM, respectively.

On to `CC(C)(C)n1cnc2ccc(-c3nc(N[C@@H]4CCN(S(C)(=O)=O)C[C@H]4O)ncc3F)cc21` [Example A77, (3R,4R)-4-{[4-(1-tert-butyl-1H-benzimidazol-6-yl)-5-fluoropyrimidin-2-yl]amino}-1-(methanesulfonyl)piperidin-3-ol], for which the 50% inhibitory concentration (IC50) on CDK6 came out at 126 nM; on CDK4, 61.1 nM. Besides, the inhibition constant Ki on CDK4/Cyclin D1 was 0.3 nM; on CDK6/Cyclin D3, 4.9 nM.

With `Cc1nc2c(F)cc(-c3nc(N[C@@H]4CCOC[C@H]4O)ncc3Cl)cc2n1C(C)(C)CN` [Example A52, 3-({4-[1-(1-amino-2-methylpropan-2-yl)-4-fluoro-2-methyl-1H-benzimidazol-6-yl]-5-chloropyrimidin-2-yl}amino)-1,5-anhydro-2,3-dideoxy-D-threo-pentitol], the half-maximal inhibitory concentration (IC50) came out at 973 nM on CDK6 and 202 nM on CDK4. In addition, the inhibition constant (Ki) stood at 2.7 nM on CDK4/Cyclin D1 and 60.1 nM at CDK6/Cyclin D3.

As to `COCc1nc2c(F)cc(-c3nc(N[C@@H]4CCN(S(C)(=O)=O)C[C@H]4O)ncc3Cl)cc2n1C(C)C` [Example A75, (3R,4R)-4-({5-chloro-4-[4-fluoro-2-(methoxymethyl)-1-(propan-2-yl)-1H-benzimidazol-6-yl]pyrimidin-2-yl}amino)-1-(methanesulfonyl)piperidin-3-ol], the results for the half-inhibitory concentration (IC50) on CDK6 and on CDK4 were 103 nM and 33.2 nM, respectively. For the same compound, the Ki at CDK4/Cyclin D1 amounted to 0.3 nM; on CDK6/Cyclin D3 it was 5 nM.
